Source: paper PMC7211198, “Phase 1b study of a small molecule antagonist of human chemokine (C-C motif) receptor 2 (PF-04136309) in combination with nab-paclitaxel/gemcitabine in first-line treatment of metastatic pancreatic ductal adenocarcinoma” (Investigational New Drugs, 2019)
Marks after values point to notes of the source that are not given here.

Experiment: Safety and tolerability (TEAEs, SAEs, DLTs, RP2D) in phase Ib study
Type: in vivo, human
Description: Safety assessments included collection of adverse events (AEs), serious AEs (SAEs), vital signs and physical examination, electrocardiogram (12-lead), laboratory assessments, including pregnancy test, and verification of concomitant treatments. A patient was considered as DLT-evaluable if the patient experienced a DLT or if otherwise, in the absence of a DLT, the patient received at least 85% of the planned doses of each study drug in the first 28-day cycle. DLTs were defined as any of the following events occurring in the first cycle of treatment (days 1 through 28) and attributed (i.e., judged to be at least possibly related) to the combination of PF-04136309 plus nab-paclitaxel/gemcitabine, where relationship with the combination could not be ruled out. DLTs were hematologic events of grade 4 neutropenia lasting >5 days; febrile neutropenia; grade ≥ 3 neutropenic infection; grade ≥ 3 thrombocytopenia with grade ≥ 2 bleeding; grade 4 thrombocytopenia; and nonhematologic events of grade 3 toxicities. Exceptions included nausea and vomiting responding to prophylaxis and/or treatment and lasting <7 days from each chemotherapy infusion period; diarrhea responding to treatment and lasting <7 days; grade 3 fatigue lasting <7 days; grade 3 QT interval corrected for heart rate prolongation (>500 msec) persisting after correction of any reversible causes; and/or grade 3 aspartate aminotransferase (AST) and/or alanine aminotransferase (ALT) increase lasting ≤7 days. All grade 4 toxicities and a delay of >2 weeks in receiving the next scheduled cycle due to persistent treatment-related toxicities were considered DLTs. AEs meeting DLT criteria in the dose-expansion phase included grade 3 events of diarrhea, hypokalemia, and dysesthesia and grade 4 hypoxia. […] AEs were graded according to the National Cancer Institute Common Terminology Criteria for Adverse Events, version 4.03.

[1] = 750 mg BID + nab-P/Gem, all-causality TEAE
[2] = 750 mg BID + nab-P/Gem, treatment-related SAE
[3] = 500-mg BID group (n = 17), n = 1, considered unrelated to study treatment
[4] = Total N = 21, treatment-related TEAE

With `O=C(NCC(=O)N1CC[C@H](N[C@H]2CC[C@@](O)(c3ccc(-c4ncccn4)cn3)CC2)C1)c1cccc(C(F)(F)F)c1` [PF-04136309] the “Chills, Grade 5” value [1] was 0 n (%), the “Chills, Total” value [1] was 2 (50.0) n (%) and the “Constipation, Grade 1” value [1] was 2 (50.0) n (%). For the same molecule, the “Constipation, Grade 2” value [1] was 1 (25.0) n (%), the “Constipation, Grade 3” value [1] was 0 n (%) and the “Constipation, Grade 4” value [1] was 0 n (%). For the same molecule, the “Constipation, Grade 5” value [1] was 0 n (%), the “Constipation, Total” value [1] was 3 (75.0) n (%) and the “Fatigue, Grade 1” value [1] was 3 (75.0) n (%). For the same molecule, the “Fatigue, Grade 2” value [1] was 1 (25.0) n (%), the “Fatigue, Grade 3” value [1] was 0 n (%) and the “Fatigue, Grade 4” value [1] was 0 n (%). For the same molecule, the “Fatigue, Grade 5” value [1] was 0 n (%), the “Fatigue, Total” value [1] was 4 (100.0) n (%) and the “Insomnia, Grade 1” value [1] was 1 (25.0) n (%). The “Insomnia, Grade 2” value [1] was 1 (25.0) n (%), the “Insomnia, Grade 3” value [1] was 0 n (%) and the “Insomnia, Grade 4” value [1] was 0 n (%). The “Insomnia, Grade 5” value [1] was 0 n (%), the “Insomnia, Total” value [1] was 2 (50.0) n (%) and the “Leukopenia, Grade 1” value [1] was 0 n (%). For the same molecule, the “Leukopenia, Grade 2” value [1] was 0 n (%), the “Leukopenia, Grade 3” value [1] was 3 (75.0) n (%) and the “Leukopenia, Grade 4” value [1] was 0 n (%). For the same molecule, the “Leukopenia, Grade 5” value [1] was 0 n (%), the “Leukopenia, Total” value [1] was 3 (75.0) n (%) and the “Malaise, Grade 1” value [1] was 2 (50.0) n (%). For the same molecule, the “Malaise, Grade 2” value [1] was 0 n (%), the “Malaise, Grade 3” value [1] was 0 n (%) and the “Malaise, Grade 4” value [1] was 0 n (%). For the same molecule, the “Malaise, Grade 5” value [1] was 0 n (%), the “Malaise, Total” value [1] was 2 (50.0) n (%) and the “Nausea, Grade 1” value [1] was 3 (75.0) n (%). The “Nausea, Grade 2” value [1] was 0 n (%), the “Nausea, Grade 3” value [1] was 1 (25.0) n (%) and the “Nausea, Grade 4” value [1] was 0 n (%). The “Nausea, Grade 5” value [1] was 0 n (%), the “Nausea, Total” value [1] was 4 (100.0) n (%) and the “Neutropenia, Grade 1” value [1] was 0 n (%). The “Neutropenia, Grade 2” value [1] was 0 n (%), the “Neutropenia, Grade 3” value [1] was 3 (75.0) n (%) and the “Neutropenia, Grade 4” value [1] was 0 n (%). For the same molecule, the “Neutropenia, Grade 5” value [1] was 0 n (%), the “Neutropenia, Total” value [1] was 3 (75.0) n (%) and the “Pain in extremity, Grade 1” value [1] was 1 (25.0) n (%). The “Pain in extremity, Grade 2” value [1] was 1 (25.0) n (%), the “Pain in extremity, Grade 3” value [1] was 0 n (%) and the “Pain in extremity, Grade 4” value [1] was 0 n (%). For the same molecule, the “Pain in extremity, Grade 5” value [1] was 0 n (%), the “Pain in extremity, Total” value [1] was 2 (50.0) n (%) and the “Pyrexia, Grade 1” value [1] was 1 (25.0) n (%). The “Pyrexia, Grade 2” value [1] was 1 (25.0) n (%), the “Pyrexia, Grade 3” value [1] was 0 n (%) and the “Pyrexia, Grade 4” value [1] was 0 n (%). The “Pyrexia, Grade 5” value [1] was 0 n (%), the “Pyrexia, Total” value [1] was 2 (50.0) n (%) and the “Rash, Grade 1” value [1] was 2 (50.0) n (%). For the same molecule, the “Rash, Grade 2” value [1] was 1 (25.0) n (%), the “Rash, Grade 3” value [1] was 0 n (%) and the “Rash, Grade 4” value [1] was 0 n (%). The “Rash, Grade 5” value [1] was 0 n (%), the “Rash, Total” value [1] was 3 (75.0) n (%) and the “Thrombocytopenia, Grade 1” value [1] was 1 (25.0) n (%). The “Thrombocytopenia, Grade 2” value [1] was 1 (25.0) n (%), the “Thrombocytopenia, Grade 3” value [1] was 0 n (%) and the “Thrombocytopenia, Grade 4” value [1] was 0 n (%). For the same molecule, the “Thrombocytopenia, Grade 5” value [1] was 0 n (%), the “Thrombocytopenia, Total” value [1] was 2 (50.0) n (%) and the “Vomiting, Grade 1” value [1] was 2 (50.0) n (%). For the same molecule, the “Vomiting, Grade 2” value [1] was 1 (25.0) n (%), the “Vomiting, Grade 3” value [1] was 0 n (%) and the “Vomiting, Grade 4” value [1] was 0 n (%). For the same molecule, the “Vomiting, Grade 5” value [1] was 0 n (%), the “Vomiting, Total” value [1] was 3 (75.0) n (%) and the “Any SAE, Grade 1” value [2] was 0 n (%). The “Any SAE, Grade 2” value [2] was 1 (25.0) n (%), the “Any SAE, Grade 3” value [2] was 1 (25.0) n (%) and the “Any SAE, Grade 4” value [2] was 0 n (%). For the same molecule, the “Any SAE, Grade 5” value [2] was 0 n (%), the “Any SAE, Total” value [2] was 2 (50.0) n (%) and the “Cognitive disorder, Grade 1” value [2] was 0 n (%). For the same molecule, the “Cognitive disorder, Grade 2” value [2] was 0 n (%), the “Cognitive disorder, Grade 3” value [2] was 1 (25.0) n (%) and the “Cognitive disorder, Grade 4” value [2] was 0 n (%). For the same molecule, the “Cognitive disorder, Grade 5” value [2] was 0 n (%), the “Cognitive disorder, Total” value [2] was 1 (25.0) n (%) and the “Rash, Grade 1” value [2] was 0 n (%). The “Rash, Grade 2” value [2] was 1 (25.0) n (%), the “Rash, Grade 3” value [2] was 0 n (%) and the “Rash, Grade 4” value [2] was 0 n (%). For the same molecule, the “Rash, Grade 5” value [2] was 0 n (%), the “Rash, Total” value [2] was 1 (25.0) n (%) and the “Patients who experienced SAEs” value (14 of the 21 treated patients) was 66.7%. For the same molecule, the “Grade 4 TEAE: decreased neutrophil count, patients” value [3] was 5.9%, the “Grade 4 TEAE: decreased white blood cell count, patients” value [3] was 5.9% and the “PF-04136309-related TEAE: rash, patients” value (500-mg BID group (n = 17), n = 6) was 35.3%. For the same molecule, the “PF-04136309-related TEAE: rash, patients” value (750-mg BID group (n = 4), n = 3) was 75.0%, the DLT events (750-mg BID group, one of four patients, cycle 1 day 7, resolved same day) was “grade 3 cognitive disorder” and the “ALT increase, grade ≥3” value [4] was 4 (19.0) n (%). For the same molecule, the “AST increase, grade ≥3” value [4] was 4 (19.0) n (%), the “Anemia, grade ≥3” value [4] was 4 (19.0) n (%) and the “Fatigue, grade ≥3” value [4] was 4 (19.0) n (%). The “Leukopenia, grade ≥3” value [4] was 5 (23.8) n (%), the “Lymphopenia, grade ≥3” value [4] was 5 (23.8) n (%) and the “Neutropenia, grade ≥3” value [4] was 5 (23.8) n (%). The DLT (Total n = 21, first cycle, 5 DLTs in four patients) was 4 (19.0)^c n (%), the Deaths (all in 500-mg BID group, 10 of 11 due to disease under study, one due to grade 5 pneumonia) was “Eleven” and the “Changes in laboratory tests consistent with a relationship to study drug” value (all treated patients) was “no clinically significant changes”. For the same molecule, the “Changes in vital signs data consistent with a relationship to study drug” value (all treated patients) was “no clinically significant changes”, the “Recommended phase II dose (RP2D)” value (in combination with nab-paclitaxel/gemcitabine) was 500 mg BID and the “Late-onset DLT” value (in vivo) was “Grade 3 pneumonitis”. The “Incidence of pulmonary toxicity” value (n = 21, combination with nab-paclitaxel/gemcitabine) was 24% and the “Patients who experienced treatment-related SAEs” value (seven of 21, attributed to at least one of PF-04136309, nab-paclitaxel, gemcitabine) was 33.3%.
